Laboratory results as given in paper PMC7029851, “Antibacterial activity of novel dual bacterial DNA type II topoisomerase inhibitors” (PLoS ONE, 2020).
Converted amounts (≈) assume the structure as drawn. Read-outs that look alike come from different tables or passages of the source.

Experiments:
E. coli Topoisomerase IV = molecular target: T1, E. coli Topoisomerase IV (Escherichia coli, UniProt P0AFI2); experiment: E. coli topoisomerase IV decatenation gel assay; assay type: biochemical
T1 construct: purchased Inspiralis (Norwich, UK)
Description: (§1) S. aureus and E. coli DNA gyrase supercoiling and topo IV decatenation assay kits, as well as human topoisomerase II decatenation assay kits, were provided by Inspiralis (Norwich, UK). Assays were performed according to the manufacturer’s instructions. The compounds were serially diluted (1:3 dilutions starting from a 300 μM final concentration) and assayed in a reaction mixture to obtain concentration-response curves in two different replicate experiments. The final concentration of DMSO in the assays was 1% (v/v). The reactions were terminated by the addition of 30 μl chloroform/isoamyl alcohol (26:1) and 30 μl Stop Dye (40% sucrose, 100 mM Tris HCl pH 7.5, 1 mM EDTA, 0.5 μg/ml bromophenol blue), after which the samples were loaded onto a 1.0% TAE ([…]) gel that was then run at 80 V for 2 hours. DNA bands were visualized by ethidium bromide staining the gel for 10 minutes, which was then destained for 10 minutes in water and analysed using gel documentation equipment (Syngene, Cambridge, UK). The DNA in each band was quantitated using Syngene Gene Tools software. Raw gel data (fluorescent band volumes) were converted by the software to percentages of the control (the fully supercoiled or decatenated DNA band). […] The global curve fit non-linear regression tool was used to calculate the IC50 values. The results are expressed as the average values obtained after calculating the IC50 from each replicate run.

E. coli DNA gyrase = molecular target: T2, E. coli DNA gyrase (Escherichia coli, UniProt P0AES4); experiment: E. coli DNA gyrase supercoiling gel assay; assay type: biochemical
T2 construct: purchased Inspiralis (Norwich, UK)
Description: as §1

[1] = system: K. pneumoniae AcrAB- mutant; experiment: microbe, parasite or virus in culture; assay type: cell-based; conditions: Klebsiella pneumoniae
Description: (§2) The bacterial reference strains used in this study were purchased from ATCC (American Type Culture Collection) via LGC Standards (Middlesex, UK). […] Clinical MDR isolates were provided by Aptuit, the IHMA Europa Sàrl repository (Epalinges, Switzerland) and the Statens Serum Institute (Copenhagen, Denmark).
(§3) MICs were determined by the broth microdilution method (the agar dilution method was used only for N. gonorrhoeae) according to CLSI guidelines.

E. coli TolC- mutant = experiment: microbe, parasite or virus in culture; assay type: cell-based; conditions: Escherichia coli
Description: as §2, §3

[2] = system: N. gonorrhoeae ATCC 49226; experiment: MIC, agar dilution; assay type: cell-based; conditions: Neisseria gonorrhoeae, ATCC49226; N. gonorrhoeae ATCC 49226, ciprofloxacin-susceptible
Description: as §3

[3] = system: N. gonorrhoeae ATCC 19424; experiment: MIC, agar dilution; assay type: cell-based; conditions: Neisseria gonorrhoeae, ATCC19424; N. gonorrhoeae ATCC 19424, ciprofloxacin-susceptible
Description: as §3

N. gonorrhoeae WHO L = experiment: MIC, agar dilution; assay type: cell-based; conditions: Neisseria gonorrhoeae, ciprofloxacin-resistant
Description: as §3

N. gonorrhoeae WHO N = experiment: MIC, agar dilution; assay type: cell-based; conditions: Neisseria gonorrhoeae, ciprofloxacin-resistant
Description: as §3

N. gonorrhoeae WHO K = experiment: MIC, agar dilution; assay type: cell-based; conditions: Neisseria gonorrhoeae, ciprofloxacin-resistant
Description: as §3

[4] = system: N. gonorrhoeae clinical isolates (n = 38); experiment: microbe, parasite or virus in culture; assay type: cell-based, Neisseria gonorrhoeae
Description: as §2, §3
(§4) The results obtained using clinical isolates are reported as MIC50 and MIC90 values.

S. aureus ATCC 29213 = experiment: MIC, broth microdilution; assay type: cell-based, Staphylococcus aureus; conditions: Staphylococcus aureus
Description: as §3

Human Topoisomerase II = molecular target: T3, Human Topoisomerase II (Homo sapiens, UniProt P11388); experiment: Human topoisomerase II decatenation gel assay; assay type: biochemical
T3 construct: purchased Inspiralis (Norwich, UK)
Description: as §1

[5] = molecular target: T4, S. aureus Topoisomerase IV (Staphylococcus aureus, UniProt P0C1U9); experiment: S. aureus topoisomerase IV decatenation gel assay; assay type: biochemical
T4 construct: purchased Inspiralis (Norwich, UK)
Description: as §1

S. aureus DNA gyrase = molecular target: T5, S. aureus DNA gyrase (Staphylococcus aureus, UniProt P20831); experiment: S. aureus DNA gyrase supercoiling gel assay; assay type: biochemical
T5 construct: purchased Inspiralis (Norwich, UK)
Description: as §1

[6] = system: E. faecium clinical isolates (n = 12) vanA (6)/vanB (6); experiment: MIC, multidrug-resistant clinical isolates; assay type: cell-based; conditions: Enterococcus faecium
Description: as §2, §3, §4

[7] = system: E. faecalis clinical isolates (n = 12) vanA (6)/vanB (6); experiment: MIC, multidrug-resistant clinical isolates; assay type: cell-based; conditions: Enterococcus faecalis
Description: as §2, §3, §4

S. aureus BAA-1720 = experiment: MIC, broth microdilution; assay type: cell-based; conditions: Staphylococcus aureus, BAA1720; S. aureus BAA-1720, ciprofloxacin-resistant
Description: as §3

S. pneumoniae ATCC 49619 = experiment: MIC, broth microdilution; assay type: cell-based; conditions: Streptococcus pneumoniae, ATCC49619; S. pneumoniae ATCC 49619, ciprofloxacin-susceptible
Description: as §3

H. influenzae ATCC 49766 = experiment: MIC, broth microdilution; assay type: cell-based; conditions: Haemophilus influenzae, ATCC49766; H. influenzae ATCC 49766, ciprofloxacin-susceptible
Description: as §3

[8] = system: K. pneumoniae ATCC 700603; experiment: MIC, broth microdilution; assay type: cell-based; conditions: Klebsiella pneumoniae, ATCC700603; K. pneumoniae ATCC 700603, ciprofloxacin-susceptible
Description: as §3

E. coli ATCC 25922 = experiment: MIC, broth microdilution; assay type: cell-based; conditions: Escherichia coli, ATCC25922; E. coli ATCC 25922, ciprofloxacin-susceptible
Description: as §3

E. faecalis ATCC 29212 = experiment: MIC, broth microdilution; assay type: cell-based; conditions: Enterococcus faecalis, ATCC29212; E. faecalis ATCC 29212, ciprofloxacin-susceptible
Description: as §3

P. aeruginosa ATCC 27853 = experiment: MIC, broth microdilution; assay type: cell-based; conditions: Pseudomonas aeruginosa, ATCC27853; P. aeruginosa ATCC 27853, ciprofloxacin-susceptible
Description: as §3

T4 sequence (P0C1S7 whole entry): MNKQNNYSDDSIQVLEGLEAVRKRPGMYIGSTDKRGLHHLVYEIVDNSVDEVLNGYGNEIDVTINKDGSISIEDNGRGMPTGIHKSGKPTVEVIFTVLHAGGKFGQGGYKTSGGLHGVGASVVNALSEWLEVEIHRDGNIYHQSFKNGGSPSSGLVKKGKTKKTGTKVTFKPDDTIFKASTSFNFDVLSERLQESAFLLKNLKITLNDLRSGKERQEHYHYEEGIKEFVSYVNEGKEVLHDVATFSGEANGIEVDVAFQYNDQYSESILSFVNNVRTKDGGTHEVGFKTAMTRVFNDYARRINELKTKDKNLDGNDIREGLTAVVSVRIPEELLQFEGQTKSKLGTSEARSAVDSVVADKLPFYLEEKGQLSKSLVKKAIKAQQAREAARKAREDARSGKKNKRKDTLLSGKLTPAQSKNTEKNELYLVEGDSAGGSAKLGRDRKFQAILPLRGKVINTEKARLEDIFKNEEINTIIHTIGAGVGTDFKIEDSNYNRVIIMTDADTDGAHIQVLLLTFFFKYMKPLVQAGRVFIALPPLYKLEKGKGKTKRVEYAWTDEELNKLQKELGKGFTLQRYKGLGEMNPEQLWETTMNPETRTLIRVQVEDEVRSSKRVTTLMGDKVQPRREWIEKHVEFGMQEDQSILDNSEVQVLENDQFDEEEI
T4 sequence (P0C1U9 whole entry): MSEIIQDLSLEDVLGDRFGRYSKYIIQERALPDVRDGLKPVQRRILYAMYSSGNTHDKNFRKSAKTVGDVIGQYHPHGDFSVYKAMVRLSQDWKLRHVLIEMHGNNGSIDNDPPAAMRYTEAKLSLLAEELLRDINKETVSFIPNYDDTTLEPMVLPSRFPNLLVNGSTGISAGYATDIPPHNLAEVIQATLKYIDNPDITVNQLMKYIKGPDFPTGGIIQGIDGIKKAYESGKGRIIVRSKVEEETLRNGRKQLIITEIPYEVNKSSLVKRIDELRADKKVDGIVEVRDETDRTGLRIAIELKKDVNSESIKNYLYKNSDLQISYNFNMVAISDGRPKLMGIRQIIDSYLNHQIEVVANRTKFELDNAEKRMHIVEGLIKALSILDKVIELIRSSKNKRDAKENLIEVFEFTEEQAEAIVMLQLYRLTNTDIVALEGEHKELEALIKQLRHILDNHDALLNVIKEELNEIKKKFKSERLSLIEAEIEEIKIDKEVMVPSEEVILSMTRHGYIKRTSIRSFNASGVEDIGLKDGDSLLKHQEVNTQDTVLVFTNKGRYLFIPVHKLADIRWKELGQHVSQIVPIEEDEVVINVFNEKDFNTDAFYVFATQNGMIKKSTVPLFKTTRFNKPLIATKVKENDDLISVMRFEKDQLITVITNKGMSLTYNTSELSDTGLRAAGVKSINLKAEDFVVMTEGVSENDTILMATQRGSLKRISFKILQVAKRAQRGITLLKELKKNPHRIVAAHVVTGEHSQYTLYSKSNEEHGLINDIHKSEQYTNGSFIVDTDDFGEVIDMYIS
T3 sequence (P11388 whole entry): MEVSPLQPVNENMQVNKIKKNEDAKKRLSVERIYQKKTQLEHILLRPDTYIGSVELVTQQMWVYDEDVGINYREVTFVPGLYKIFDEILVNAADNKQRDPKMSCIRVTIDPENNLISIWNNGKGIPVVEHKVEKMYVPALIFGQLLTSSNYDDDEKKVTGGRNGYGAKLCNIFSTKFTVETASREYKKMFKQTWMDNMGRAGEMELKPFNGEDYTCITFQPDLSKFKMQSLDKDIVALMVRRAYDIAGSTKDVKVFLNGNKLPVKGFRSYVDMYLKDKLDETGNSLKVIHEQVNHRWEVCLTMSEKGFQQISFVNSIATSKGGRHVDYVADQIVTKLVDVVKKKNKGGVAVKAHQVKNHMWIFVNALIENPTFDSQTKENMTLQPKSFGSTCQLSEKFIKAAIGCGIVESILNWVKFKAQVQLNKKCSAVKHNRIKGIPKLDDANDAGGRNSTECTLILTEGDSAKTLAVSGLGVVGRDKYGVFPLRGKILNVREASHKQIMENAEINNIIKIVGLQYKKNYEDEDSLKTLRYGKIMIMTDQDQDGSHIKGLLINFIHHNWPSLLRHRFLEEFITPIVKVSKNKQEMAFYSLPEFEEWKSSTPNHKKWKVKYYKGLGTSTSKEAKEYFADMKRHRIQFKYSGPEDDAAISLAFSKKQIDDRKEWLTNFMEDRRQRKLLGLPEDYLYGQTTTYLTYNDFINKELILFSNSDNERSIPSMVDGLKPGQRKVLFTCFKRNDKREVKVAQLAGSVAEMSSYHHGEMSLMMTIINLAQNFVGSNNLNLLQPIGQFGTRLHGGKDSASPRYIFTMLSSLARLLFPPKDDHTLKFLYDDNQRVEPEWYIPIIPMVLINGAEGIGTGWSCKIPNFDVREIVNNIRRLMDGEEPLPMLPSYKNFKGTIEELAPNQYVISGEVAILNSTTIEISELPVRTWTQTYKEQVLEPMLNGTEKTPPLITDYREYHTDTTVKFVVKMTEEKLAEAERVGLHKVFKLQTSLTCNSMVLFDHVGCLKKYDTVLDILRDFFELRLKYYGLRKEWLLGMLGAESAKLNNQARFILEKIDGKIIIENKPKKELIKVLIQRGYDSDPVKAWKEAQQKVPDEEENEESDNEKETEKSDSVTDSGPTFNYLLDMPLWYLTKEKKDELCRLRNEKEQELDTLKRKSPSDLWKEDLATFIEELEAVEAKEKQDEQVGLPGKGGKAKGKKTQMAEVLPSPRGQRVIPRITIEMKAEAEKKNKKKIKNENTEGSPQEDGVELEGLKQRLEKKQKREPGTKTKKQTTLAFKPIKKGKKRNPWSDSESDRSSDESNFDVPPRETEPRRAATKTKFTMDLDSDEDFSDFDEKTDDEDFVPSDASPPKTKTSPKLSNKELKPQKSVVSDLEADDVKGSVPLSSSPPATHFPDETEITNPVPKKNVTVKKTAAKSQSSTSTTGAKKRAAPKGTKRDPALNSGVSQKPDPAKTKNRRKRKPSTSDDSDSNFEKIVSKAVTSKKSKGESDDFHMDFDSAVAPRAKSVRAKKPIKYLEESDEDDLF
T5 sequence (P20831 whole entry): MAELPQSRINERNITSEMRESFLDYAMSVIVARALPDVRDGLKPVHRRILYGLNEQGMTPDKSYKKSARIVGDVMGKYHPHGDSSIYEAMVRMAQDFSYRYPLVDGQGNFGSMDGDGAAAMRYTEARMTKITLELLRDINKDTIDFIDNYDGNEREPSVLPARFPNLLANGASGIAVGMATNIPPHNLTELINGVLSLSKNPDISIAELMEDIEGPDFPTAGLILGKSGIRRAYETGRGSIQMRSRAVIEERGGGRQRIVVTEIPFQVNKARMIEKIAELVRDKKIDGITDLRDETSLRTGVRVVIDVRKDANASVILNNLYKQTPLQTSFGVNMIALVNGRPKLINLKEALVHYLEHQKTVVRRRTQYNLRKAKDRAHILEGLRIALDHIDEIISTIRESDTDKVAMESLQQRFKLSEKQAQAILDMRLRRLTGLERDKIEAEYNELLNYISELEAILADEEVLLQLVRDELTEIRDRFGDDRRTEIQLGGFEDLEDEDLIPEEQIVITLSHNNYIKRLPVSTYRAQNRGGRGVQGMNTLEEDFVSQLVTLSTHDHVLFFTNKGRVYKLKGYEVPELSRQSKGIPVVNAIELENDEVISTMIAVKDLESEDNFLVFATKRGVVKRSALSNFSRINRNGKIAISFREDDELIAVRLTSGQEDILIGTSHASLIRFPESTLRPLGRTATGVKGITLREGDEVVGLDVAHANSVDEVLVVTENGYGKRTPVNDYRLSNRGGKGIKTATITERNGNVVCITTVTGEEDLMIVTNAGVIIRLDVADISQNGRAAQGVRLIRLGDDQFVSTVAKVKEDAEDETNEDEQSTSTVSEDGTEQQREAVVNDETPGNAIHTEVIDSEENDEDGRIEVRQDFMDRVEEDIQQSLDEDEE
T5 sequence (P0A0K8 whole entry partner): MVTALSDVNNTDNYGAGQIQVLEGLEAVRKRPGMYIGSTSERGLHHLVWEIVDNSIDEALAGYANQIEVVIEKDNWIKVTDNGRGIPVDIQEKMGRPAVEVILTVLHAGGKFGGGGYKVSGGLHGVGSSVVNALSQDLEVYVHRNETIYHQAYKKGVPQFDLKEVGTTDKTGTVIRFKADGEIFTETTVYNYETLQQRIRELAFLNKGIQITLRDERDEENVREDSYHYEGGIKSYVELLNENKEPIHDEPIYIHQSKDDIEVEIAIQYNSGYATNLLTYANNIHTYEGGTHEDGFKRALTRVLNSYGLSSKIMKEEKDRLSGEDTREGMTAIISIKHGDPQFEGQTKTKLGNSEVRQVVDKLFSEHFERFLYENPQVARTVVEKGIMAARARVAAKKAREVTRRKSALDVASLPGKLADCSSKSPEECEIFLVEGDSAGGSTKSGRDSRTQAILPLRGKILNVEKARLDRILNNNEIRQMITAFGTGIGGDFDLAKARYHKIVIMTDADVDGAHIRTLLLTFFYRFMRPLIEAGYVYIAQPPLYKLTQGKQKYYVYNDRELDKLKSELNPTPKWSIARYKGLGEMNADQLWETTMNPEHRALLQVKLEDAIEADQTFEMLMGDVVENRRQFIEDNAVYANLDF

Q: With O=C1COc2ncc(F)cc2N1[C@H]1CC[C@H](NCc2cc3c(=O)oc4ccc(F)cc4c3[nH]2)CC1 [Compound 1, 8-fluoro-2-({[trans-4-(7-fluoro-2-oxo-2,3-dihydro-1H-pyrido[2,3-b][1,4]oxazin-1-yl)cyclohexyl]amino}methyl)[1]benzopyrano[4,3-b]pyrrol-4(1H)-one] as the compound, how does the IC50 (E. coli Topoisomerase IV; average of two replicate experiments, read-out: IC50 E. coli Topoisomerase IV decatenation (average)) read?
A: 1380 nM

Q: And the IC50 (E. coli Topoisomerase IV; replicate Assay 1, read-out: IC50 E. coli Topoisomerase IV decatenation, Assay 1)?
A: 1350 nM

Q: And the IC50 (E. coli Topoisomerase IV; replicate Assay 2, read-out: IC50 E. coli Topoisomerase IV decatenation, Assay 2)?
A: 1420 nM

Q: What about the IC50 (E. coli DNA gyrase; average of two replicate experiments, read-out: IC50 E. coli Gyrase Supercoiling (average)) of the same compound?
A: 250 nM

Q: What about the IC50 (E. coli DNA gyrase; replicate Assay 1, read-out: IC50 E. coli gyrase Supercoiling, Assay 1) of the same compound?
A: 340 nM

Q: And the IC50 (E. coli DNA gyrase; replicate Assay 2, read-out: IC50 E. coli gyrase Supercoiling, Assay 2)?
A: 160 nM

Q: What about the MIC [1] of the same compound?
A: 0.03 µg/mL (≈ 0.0624 µM)

Q: What about the MIC (E. coli TolC- mutant) of the same compound?
A: ≤ 0.016 µg/mL

Q: What about the MIC [2] of the same compound?
A: 0.06 µg/mL (≈ 0.125 µM)

Q: And the MIC [3]?
A: ≤ 0.06 µg/mL

Q: And the MIC (N. gonorrhoeae WHO L)?
A: 0.12 µg/mL (≈ 0.25 µM)

Q: And the MIC (N. gonorrhoeae WHO N)?
A: 0.06 µg/mL (≈ 0.125 µM)

Q: What about the MIC (N. gonorrhoeae WHO K) of the same compound?
A: 0.12 µg/mL (≈ 0.25 µM)

Q: And the MIC range [4]?
A: 0.016 to 0.12 µg/mL

Q: What about the MIC50 ([4]; Neisseria gonorrhoeae) of the same compound?
A: 0.12 µg/mL (≈ 0.25 µM)

Q: And the MIC90 ([4]; Neisseria gonorrhoeae)?
A: 0.12 µg/mL (≈ 0.25 µM)

Q: What about the MIC (S. aureus ATCC 29213; ATCC29213, S. aureus ATCC 29213, ciprofloxacin-susceptible) of the same compound?
A: 0.25 µg/mL (≈ 0.52 µM)

Q: And the MIC (S. aureus ATCC 29213; ATCC29213, S. aureus ATCC29213, ref strain, S4 File)?
A: 0.25 µg/mL (≈ 0.52 µM)

Q: And the IC50 (Human Topoisomerase II; average of two replicate experiments, read-out: IC50 Human Topoisomerase II decatenation (average))?
A: 98000 nM

Q: What about the IC50 (Human Topoisomerase II; replicate Assay 1, read-out: IC50 Human Topoisomerase II (TopoII) decatenation, Assay 1) of the same compound?
A: 96000 nM

Q: And the IC50 (Human Topoisomerase II; replicate Assay 2, read-out: IC50 Human Topoisomerase II (TopoII) decatenation, Assay 2)?
A: 99000 nM

Q: And the IC50 [5]?
A: 2250 nM

Q: And the IC50 ([5]; replicate Assay 1, read-out: IC50 S. aureus Topoisomerase IV decatenation, Assay 1)?
A: 2200 nM

Q: What about the IC50 ([5]; replicate Assay 2, read-out: IC50 S. aureus Topoisomerase IV decatenation, Assay 2) of the same compound?
A: 2300 nM

Q: And the IC50 (S. aureus DNA gyrase; IC50 S. aureus Gyrase Supercoiling (average), average of two replicate experiments)?
A: 280 nM

Q: And the IC50 (S. aureus DNA gyrase; replicate Assay 1, read-out: IC50 S.aureus gyrase Supercoiling, Assay 1)?
A: 250 nM

Q: What about the IC50 (S. aureus DNA gyrase; replicate Assay 2, read-out: IC50 S.aureus gyrase Supercoiling, Assay 2) of the same compound?
A: 310 nM

Q: And the MIC50 [6]?
A: 1 µg/mL (≈ 2.08 µM)

Q: What about the MIC90 [6] of the same compound?
A: 2 µg/mL (≈ 4.16 µM)

Q: And the MIC ([6]; read-out: MIC range)?
A: 0.03 to 16 µg/mL (≈ 0.0624 to 33.3 µM)

Q: What about the MIC50 [7] of the same compound?
A: 0.03 µg/mL (≈ 0.0624 µM)

Q: And the MIC90 [7]?
A: 0.25 µg/mL (≈ 0.52 µM)

Q: What about the MIC ([7]; read-out: MIC range) of the same compound?
A: 0.03 to 0.25 µg/mL (≈ 0.0624 to 0.52 µM)

Q: And the MIC (S. aureus BAA-1720)?
A: 0.5 µg/mL (≈ 1.04 µM)

Q: What about the MIC (S. pneumoniae ATCC 49619) of the same compound?
A: 0.5 µg/mL (≈ 1.04 µM)

Q: What about the MIC (H. influenzae ATCC 49766) of the same compound?
A: 0.25 µg/mL (≈ 0.52 µM)

Q: And the MIC [8]?
A: 4 µg/mL (≈ 8.33 µM)

Q: What about the MIC (E. coli ATCC 25922) of the same compound?
A: 0.5 µg/mL (≈ 1.04 µM)

Q: What about the MIC (E. faecalis ATCC 29212) of the same compound?
A: 2 µg/mL (≈ 4.16 µM)

Q: What about the MIC (P. aeruginosa ATCC 27853) of the same compound?
A: 2 µg/mL (≈ 4.16 µM)
